Tests used:
[1] = target: T1, Dd myosin-2 ΔSH3 (lacks residues 33–79) (Dictyostelium discoideum, UniProt P08799, DEL34-80); test: Steady-state basal and actin-activated Mg2+-ATPase (NADH-coupled assay); assay type: biochemical
T1 construct: Dd myosin-2 ΔSH3, a recombinant motor domain construct that lacks this subdomain; made in house
Description: Initial blind docking to homology models of the β-cardiac myosin motor domain in the post-rigor state indicated preferred binding of the drug to a region near the small N-terminal, SH3-like βbarrel subdomain. Important contacts are predicted to involve the SH3-like subdomain (residues 34–72) and two α-helices (residues 20–28 and 98–111). […] The sets of binding poses differ mainly in the orientation of the dimethylated catechol group, occupying either of the two possible branches of the Y, while the thiadiazinone moiety appears little affected and resides in the root of the Y shaped cavity (Figure 2A,B). Potential residues involved in the binding of the thiadiazinone and tetrahydroquinoline moieties of the compound include Arg23, Asp85, Lys86, Asp107, Arg108, and Ser111. The dimethylated catechol moiety is mainly bound by residues Lys34, Lys48, and Gln79, and thus, interacts with the SH3-like β-barrel.
Basal and actin-activated Mg^2+-ATPase activities were measured using the NADH-coupled assay described previously ([Furch et al., 1998]) adapted for higher throughput screens for a temperature controlled plate reader (Multiscan FC, Thermo Scientific, Waltham, MA) at 25°C. EMD 57033 was added to the reaction mixture in the absence of nucleotide and incubated before the reaction was started by the addition of ATP. Control measurements were carried out in the absence of drug, as well as in the presence of according concentrations of the non-binding (−)-enantiomer EMD 57439 to account for possible absorption effects. […] Data points are mean values from 3 to 5 independent experiments. Error bars indicate standard deviations.

β-cardiac myosin [2] = target: T2, β-cardiac myosin (Sus scrofa, UniProt P79293); test: Transient kinetics (stopped-flow) of the ATPase cycle; assay type: biochemical, Porcine; set-up: β-Cardiac myosin-2 (S1, full-length); from tissue; host or cells: porcine cardiac muscle
T2 sequence (P79293 whole entry): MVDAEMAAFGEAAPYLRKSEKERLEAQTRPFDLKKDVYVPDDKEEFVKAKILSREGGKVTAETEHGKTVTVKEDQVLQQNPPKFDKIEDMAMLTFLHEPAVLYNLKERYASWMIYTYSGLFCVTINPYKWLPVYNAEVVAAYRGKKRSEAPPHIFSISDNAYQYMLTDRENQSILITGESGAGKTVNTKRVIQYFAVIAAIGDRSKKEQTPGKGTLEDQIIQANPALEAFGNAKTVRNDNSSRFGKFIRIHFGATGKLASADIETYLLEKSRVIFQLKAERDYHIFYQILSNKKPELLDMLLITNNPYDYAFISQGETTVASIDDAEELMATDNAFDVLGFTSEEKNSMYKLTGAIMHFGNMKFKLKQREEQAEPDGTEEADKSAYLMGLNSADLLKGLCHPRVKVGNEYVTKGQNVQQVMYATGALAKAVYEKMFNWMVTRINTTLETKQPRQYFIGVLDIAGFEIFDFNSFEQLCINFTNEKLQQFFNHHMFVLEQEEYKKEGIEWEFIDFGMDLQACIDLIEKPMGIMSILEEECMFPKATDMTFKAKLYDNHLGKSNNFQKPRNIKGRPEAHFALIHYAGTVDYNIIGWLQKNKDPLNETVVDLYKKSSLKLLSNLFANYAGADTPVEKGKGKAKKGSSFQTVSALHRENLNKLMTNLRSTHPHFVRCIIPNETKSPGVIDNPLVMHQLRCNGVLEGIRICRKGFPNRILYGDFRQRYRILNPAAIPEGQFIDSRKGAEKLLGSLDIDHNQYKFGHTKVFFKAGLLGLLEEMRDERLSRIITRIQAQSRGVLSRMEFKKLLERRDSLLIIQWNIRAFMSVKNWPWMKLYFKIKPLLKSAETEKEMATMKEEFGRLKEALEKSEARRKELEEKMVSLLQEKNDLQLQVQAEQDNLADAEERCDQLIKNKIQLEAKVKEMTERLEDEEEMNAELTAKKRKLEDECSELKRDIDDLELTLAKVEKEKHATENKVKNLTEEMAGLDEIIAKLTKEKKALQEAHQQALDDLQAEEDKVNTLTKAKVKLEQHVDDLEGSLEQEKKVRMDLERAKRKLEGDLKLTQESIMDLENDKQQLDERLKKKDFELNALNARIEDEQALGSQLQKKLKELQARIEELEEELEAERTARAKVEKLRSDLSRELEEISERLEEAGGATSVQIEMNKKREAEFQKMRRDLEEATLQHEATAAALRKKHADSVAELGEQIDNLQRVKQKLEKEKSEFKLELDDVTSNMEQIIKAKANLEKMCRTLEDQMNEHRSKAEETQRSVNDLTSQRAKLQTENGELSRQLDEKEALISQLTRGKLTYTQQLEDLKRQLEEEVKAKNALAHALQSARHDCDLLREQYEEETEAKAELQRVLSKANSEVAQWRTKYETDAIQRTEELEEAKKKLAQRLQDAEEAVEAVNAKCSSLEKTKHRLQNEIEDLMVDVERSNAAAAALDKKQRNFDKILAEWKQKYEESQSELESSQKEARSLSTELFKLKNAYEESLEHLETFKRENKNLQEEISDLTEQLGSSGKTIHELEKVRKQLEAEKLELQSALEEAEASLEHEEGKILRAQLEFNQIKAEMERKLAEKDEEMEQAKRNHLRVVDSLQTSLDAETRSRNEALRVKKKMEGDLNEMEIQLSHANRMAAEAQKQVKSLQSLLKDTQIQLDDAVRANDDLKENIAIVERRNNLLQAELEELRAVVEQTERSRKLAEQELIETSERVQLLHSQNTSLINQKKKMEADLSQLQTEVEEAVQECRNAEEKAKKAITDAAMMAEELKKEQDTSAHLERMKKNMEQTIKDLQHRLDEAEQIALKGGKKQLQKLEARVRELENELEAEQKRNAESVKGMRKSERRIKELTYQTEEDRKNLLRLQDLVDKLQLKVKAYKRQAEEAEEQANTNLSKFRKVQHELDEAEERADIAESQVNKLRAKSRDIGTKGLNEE
Description: To gain a better understanding of its mechanism of action, we examined the effect of EMD 57033-binding on the kinetic activity of the myosin motor. […] Fast mixing of excess ATP with β-cardiac myosin results in an increase of the protein’s intrinsic tryptophan fluorescence. The kinetic model predicts the double exponential ‘behavior’ of the observed transients to be associated with two discrete processes (Figure 3C). The fast process corresponds to the binding of ATP to the active site. The rate of the slow process saturates at ATP concentrations above 100 µM and can be attributed to the ATP hydrolysis step ([Deacon et al., 2012]). […] Phosphate release is the rate-limiting step of the β-cardiac myosin actin-activated ATPase cycle. It can be monitored by the fluorescence increase that is associated with the much faster binding of phosphate to the A197C mutant of Escherichia coli phosphate binding protein, labeled at Cys197 with the thiol reactive coumarin dye MDCC ([Brune et al., 1994]) (Figure 3F). […] The resulting values for k+4 indicate a 1.7-fold increase in the presence of the small compound.
Stopped-flow experiments were performed using PiStar (Applied Photophysics, Leatherhead, UK) and Hi-Tech SF61 (TgK Scientific Limited, Bradford on Avon, UK) spectrophotometers at 20°C as described previously ([Taft et al., 2008]). Mant-nucleotides (Jena Bioscience, Germany) were excited at 365 nm and detected after passing through a KV 389 nm cut-off filter. Tryptophane fluorescence was excited at 297 nm and detected using a WG 320 nm cut-off filter. Long-time experiments were carried out using a shutter to avoid photo-bleaching. […] Phosphate release was measured using MDCC-PBP (N-[2-(1-maleimidyl)ethyl]-7-(diethylamino)coumarin-3-carboxamide fused to phosphate binding protein; obtained from Life Technologies, Carlsbad, CA) as described previously ([Brune et al., 1994]). Coumarin fluorescence was excited at 430 nm and detected using 455 nm cut-off-filter.

β-cardiac myosin [3] = target: T2, β-cardiac myosin; test: Frictional loading experiments with α-actinin (force production); assay type: biochemical, Porcine; set-up: β-Cardiac myosin-2 (S1, full-length); from tissue; host or cells: porcine cardiac muscle
Description: In addition, the fraction of moving filaments increased from <75% to >95%. […] In initial experiments, we determined the minimal concentration of α-actinin molecules that generate sufficient load to stall the movement of actin filaments for a given surface density of myosin heads. […] Next, we generated in vitro motility flow cells with actin filaments held at stall force. […] The time-dependence of the recovery of motile activity is best fit by a hyperbola. A plateau value of 0.4 μm s^−1 is reached after more than 2 hr (Figure 1G).

[4] = 25 μM EMD 57033, 8 µg/ml α-actinin

T1 sequence (P08799 other isoform, or with tags, fused parts or gaps DEL34-80): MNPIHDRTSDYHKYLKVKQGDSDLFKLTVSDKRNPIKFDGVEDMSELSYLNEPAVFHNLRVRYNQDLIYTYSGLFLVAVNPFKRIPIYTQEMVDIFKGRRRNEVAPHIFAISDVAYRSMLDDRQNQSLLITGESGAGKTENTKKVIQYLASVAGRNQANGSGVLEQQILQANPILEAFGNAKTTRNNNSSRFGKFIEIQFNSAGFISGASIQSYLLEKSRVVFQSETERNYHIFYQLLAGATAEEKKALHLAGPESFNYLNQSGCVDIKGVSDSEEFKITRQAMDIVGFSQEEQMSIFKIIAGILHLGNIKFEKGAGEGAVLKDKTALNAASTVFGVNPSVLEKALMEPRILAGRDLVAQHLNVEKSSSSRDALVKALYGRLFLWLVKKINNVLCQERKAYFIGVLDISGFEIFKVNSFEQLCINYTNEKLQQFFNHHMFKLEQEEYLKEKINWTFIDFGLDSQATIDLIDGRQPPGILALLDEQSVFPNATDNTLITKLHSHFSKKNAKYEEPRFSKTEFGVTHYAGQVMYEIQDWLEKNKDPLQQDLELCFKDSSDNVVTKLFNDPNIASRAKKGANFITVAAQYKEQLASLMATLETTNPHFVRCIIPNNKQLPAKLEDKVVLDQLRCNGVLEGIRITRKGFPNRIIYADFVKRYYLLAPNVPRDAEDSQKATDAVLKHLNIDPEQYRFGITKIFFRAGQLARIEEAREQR

## COc1ccc(C(=O)N2CCCc3cc(C4=NNC(=O)SC4C)ccc32)cc1OC (stereo not drawn) [EMD 57033]
[1]
  Normalized maximal ATPase activation (basal): no effect
[1]; 30 µM actin
  Normalized maximal ATPase activation (with 30 µM actin): no effect
[1]; 100 µM EMD 57033
  ATPase / chemomechanical activation of the truncated construct: no significant activation
β-cardiac myosin [2]
  Effect on ADP-release step (k−D, k−AD): appears unaffected
β-cardiac myosin [2]; 25 µM EMD 57033, F-Actin 25 µM and 25 µM ATP, MDCC-PBP
  k+4 (phosphate release): 0.15 ± 0.01 s⁻¹
β-cardiac myosin [2]; 25 µM EMD 57033 vs control
  k+2 ∼Change (−fold), increase: 3.8 fold
β-cardiac myosin [2]; EMD 57033 vs control
  k+4 ∼Change (−fold), increase: 1.7 fold
β-cardiac myosin [2]; actin-activated β-cardiac myosin, 25 µM EMD 57033
  Net change in the rate of ATP turnover, single-turnover mantATP experiment: approximately twofold net increase
β-cardiac myosin [2]; in presence of 25 µM EMD 57033
  k+2 (conformational change after ATP binding): 174 ± 7 s⁻¹
  k+3 + k−3 (rate of ATP hydrolysis): 24.5 ± 1.9 s⁻¹
  k−AD (ADP release, with actin): 26.9 ± 4 s⁻¹
  k−D (ADP release): 0.16 ± 0.04 s⁻¹
β-cardiac myosin [3]; [4]
  Plateau value of recovered filament velocity at stall load: 0.4 μm s^−1
  Time to reach plateau of recovered motility: more than 2 hr
β-cardiac myosin [3]; in presence of EMD 57033
  α-actinin concentration required to stall filament movement: ≥ 12 µg/mL

— publication PMC3920478, “Small molecule-mediated refolding and activation of myosin motor function” (eLife, 2014)
